PMC5046141, “Discovery of Isoquinolinoquinazolinones as a Novel Class of Potent PPARγ Antagonists with Anti-adipogenic Effects” (Scientific Reports, 2016)

Assays:
3T3-L1 preadipocytes = test: Oil Red O staining assay of adipocyte differentiation; type: cell-based, mouse; conditions: for inhibition at 25 µM: Mus musculus, 3T3-L1, relative absorbance from Oil Red O staining at 25 μM, read-out: Inhibitory activity (%) on adipocyte differentiation
Protocol: The GW9662-mediated inhibition of PPARγ was confirmed using an Oil Red O staining assay to measure adipocyte differentiation. To investigate whether the novel compounds could inhibit adipocyte differentiation, 3T3-L1 preadipocytes were incubated with differentiation medium (MDI; insulin, dexamethasone, and isobutyl methyl xanthine) in the presence of increasing concentrations of isoquinolinoquinazolinones. Adipogenesis was analyzed using Oil Red O staining after treatment with the compounds.
The mouse preadipocyte cell line 3T3-L1 was maintained at 37 °C in humidified air with 5% CO2. 3T3-L1 cells were cultured in Dulbecco’s modified Eagle medium (DMEM; Life Technologies) supplemented with 10% bovine serum (BS; Gibco Invitrogen, Carlsbad, California, USA) as growth medium. For adipocyte differentiation, cells were cultured for 2 days to full confluence in a 24-well plate and the growth medium was then replaced (day 0) with DMEM supplemented with 10% fetal bovine serum (FBS, Gibco Invitrogen, Carlsbad, California, USA), 5 μg/mL insulin (Sigma, St. Louis, Missouri, USA), 0.5 mM 3-isobutyl-1-methylxanthine (Sigma), and 1 μM dexamethasone (Sigma). After 48 h, the differentiation medium was replaced (day 2) with DMEM + 10% FBS containing 5 μg/mL insulin, and the cells were allowed to accumulate lipid droplets until experimental use.
The accumulation of lipids signifying the formation of adipocytes was observed by staining the differentiated cells with Oil Red O. Following differentiation, cells were washed twice with phosphate-buffered saline (PBS), fixed with 10% formalin for 60 min. Oil Red O stock solution (0.5%) was prepared in isopropanol and filtered in cellulose nitrate filters. Cells were stained with Oil Red O diluted 6:4 in water for 1 h at room temperature. Excess Oil Red O dye was washed off twice with distilled water and then dried. The stained lipid droplets within cells were visualized using an optical microscope and photographed with a digital camera at 100× magnification.

PPARγ2 = target: T1, PPARγ2 (Mus musculus, UniProt P37238); test: PPRE-Luc luciferase reporter assay of PPARγ2-induced transcriptional activity in 3T3-L1 cells; type: cell-based; conditions: for IC50: 3T3-L1 cotransfected with PPARγ2 and PPRE-Luc, read-out: IC50 with respect to PPARγ2-induced transcriptional activity; for inhibition of PPARγ2 transfection (transcriptional activity), with rosiglitazone stimulation / inhibition of PPARγ2 transfection (transcriptional activity), compound alone: 5 μM; for inhibition of PPARγ2 transfection (transcriptional activity), compound alone: without rosiglitazone
T1 construct: expressed in transfected cells; host or cells: 3T3-L1 (mouse preadipocytes), pCS4 CMV vector
T1 sequence (P37238 1-505): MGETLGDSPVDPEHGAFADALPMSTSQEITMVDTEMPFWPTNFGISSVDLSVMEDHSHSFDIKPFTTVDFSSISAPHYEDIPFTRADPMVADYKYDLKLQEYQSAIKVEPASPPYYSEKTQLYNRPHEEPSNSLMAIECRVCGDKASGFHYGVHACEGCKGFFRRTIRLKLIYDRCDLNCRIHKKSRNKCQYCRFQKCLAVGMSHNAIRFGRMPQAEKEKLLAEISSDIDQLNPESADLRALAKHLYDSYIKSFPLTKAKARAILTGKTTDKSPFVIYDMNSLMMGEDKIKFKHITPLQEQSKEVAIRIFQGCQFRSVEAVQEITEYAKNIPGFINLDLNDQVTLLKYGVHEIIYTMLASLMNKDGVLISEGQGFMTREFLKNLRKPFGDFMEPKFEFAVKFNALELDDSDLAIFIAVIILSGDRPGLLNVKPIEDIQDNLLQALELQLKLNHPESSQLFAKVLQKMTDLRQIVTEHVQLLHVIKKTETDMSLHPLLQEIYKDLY
Protocol: To analyze whether isoquinolinoquinazolinones inhibit the transactivation of PPARγ, 3T3-L1 cells were cotransfected with full-length PPARγ2 expression vector with a peroxisome proliferator response element (PPRE)-driven luciferase reporter gene (PPRE-Luc) that has been reported to respond to PPARγ[23][24]. […] Titration curves were generated using Graph Pad Prism®, and the IC50 value of each compound with respect to PPARγ2-induced transcriptional activity was determined.
The transcription activity was determined in 3T3-L1 cells transiently co-transfected with PPRE-driven luciferase reporter gene (PPRE-Luc) and PPARγ2 expression vector. […] After 24 h of transfection, the cells were cultured with indicated combination for 12 h. Luciferase activity was measured after 36 h.
For plasmids expressing PPARγ2, full length PPARγ2 (mouse, 1518 bp: NCBI Reference Sequence: NP_035276.2) was subcloned into CMV promoter-derived mammalian expression vector (pCS4). Plasmids for C285G, R288G mutant PPARγ2 were generated by PCR-based site-directed mutagenesis and also subcloned into CMV promoter-derived mammalian expression vector (pCS4).
3T3-L1 cells were transfected for indicated combinations of expression plasmids along with a luciferase reporter plasmid (PPRE-Luc). PPRE-Luc contains the consensus PPAR responsive element (PPRE). pCMV-β-gal was co-transfected for normalization of transfection efficiency. 24 h after transfection, cells were treated with indicated compounds for 12 h. Luciferase activities were measured using a luciferase reporter assay kit (Promega, Madison, WI, USA). Experiments were performed in triplicate and repeated at least three times.

IC50 (PPARγ2) [µM] | inhibition of PPARγ2 transfection (transcriptional activity), with rosiglitazone stimulation (PPARγ2) [%] | inhibition of PPARγ2 transfection (transcriptional activity), compound alone (PPARγ2) [%] | SMILES | inhibition at 25 µM (3T3-L1 preadipocytes) [%] | Inhibitory activity (%) on adipocyte differentiation (3T3-L1 preadipocytes; relative absorbance from Oil Red O staining at 25 μM, 25 µM) [%]
5.02 | – | – | COc1cc2cc3n(c(=O)c2cc1OC)CNc1ccc(Cl)cc1-3 [Compound 8n, 2-Chloro-10,11-dimethoxy-5H-isoquinolino[2,3-c]quinazolin-8(6H)-one] | 71.5 | –
2.43 | 88 | 82 | COc1cc2cc3n(c(=O)c2cc1OC)CNc1cc(Cl)ccc1-3 [Compound 8o, 3-Chloro-10,11-dimethoxy-5H-isoquinolino[2,3-c]quinazolin-8(6H)-one] | 82.9 | 82.4
4.47 | 48 | 46 | O=C(Nc1ccccc1)c1cc([N+](=O)[O-])ccc1Cl [GW9662, reference compound] | 51.4 | –
